# Legend:
# [1] = tested on: coronary blood flow (left anterior descending coronary artery); test: Microvascular endothelial function: change in coronary blood flow after intracoronary acetylcholine; type: in vivo, human; details: maximal dose of intracoronary acetylcholine, unadjusted
# Description: (§1) After diagnostic angiography and exclusion of significant obstructive coronary artery disease, endothelium-dependent coronary vasoactivity was assessed as described elsewhere (Suwaidi et al., Circulation, 101:948-954 (2000) and Hasdai et al., Circulation, 96:3390-3395 (1997)). In brief, a Doppler guidewire (Flowire, Volcano Inc.) within a coronary-infusion catheter (Ultrafuse, SciMed Life System) was positioned into the midportion of the left anterior descending coronary artery. Intra-coronary acetylcholine at increasing concentrations of 10^−6, 10^−5, and 10^−4 M was infused to obtain effective coronary concentrations of 10^−8, 10^−7, and 10^−6 M, respectively. Each dose of acetylcholine was infused for three minutes through the infusion catheter into the left anterior descending coronary artery to assess endothelium dependent vasoreactivity. Hemodynamic data, Doppler measurements, and a coronary angiogram were obtained after each infusion. Coronary artery diameter was measured by an independent investigator in the segment 5 mm distal to the tip of the Doppler wire using a computer-based image analysis system. Average peak velocity (APV) was derived from the Doppler flow velocity spectra, and coronary blood flow (CBF) was determined as π(coronary artery diameter/2)^2×(APV/2). […] Endothelium-independent microvascular function was determined by the coronary flow reserve (CFR), which is the ratio of the APV at maximal hyperemia to the APV at baseline. […] Lp-PLA2 levels were measured in plasma aliquots, which were obtained at the time of coronary angiography and stored at −70° C., using an enzyme-linked immunoassay (PLAC™ test, diaDexus, Inc; Caslake et al., Atherosclerosis, 150:413-419 (2000)). […]
# Microvascular endothelial function as determined by percentage change in coronary blood flow in response to the maximal dose of intracoronary acetylcholine was measured (FIG. 1). […]
# [2] = tested on: coronary artery diameter (left anterior descending coronary artery); test: Epicardial endothelial function: change in coronary artery diameter after intracoronary acetylcholine; type: in vivo, human; details: maximal dose of acetylcholine, unadjusted
# Description: as §1
# Epicardial endothelial function as determined by percentage change in coronary artery diameter in response to the maximal dose of acetylcholine was measured (FIG. 2). […]
# [3] = patients in Lp-PLA2 Tertile 1 (110-181.4 ng/mL, N=57)
# [4] = patients in Lp-PLA2 Tertile 2 (181.48-239.6 ng/mL, N=58)
# [5] = patients in Lp-PLA2 Tertile 3 (240-443 ng/mL, N=57)
smiles,measurement,setting,value
CC(=O)OCC[N+](C)(C)C [acetylcholine],percentage change in coronary blood flow,[1]; [3],78.4±15.2%
same,percentage change in coronary blood flow,[1]; [4],63.8±73.2%
same,percentage change in coronary blood flow,[1]; [5],32.0±71.7%
same,percentage change in coronary artery diameter,[2]; [3],−9.5±15.2%
same,percentage change in coronary artery diameter,[2]; [4],−14.1±14.7%
same,percentage change in coronary artery diameter,[2]; [5],−23.3±25.1%

# — patent US20070020716A1, “Coronary Endothelial Dysfunction” (priority 2005, published 2007)
